Test results as given in patent US20180171411A1, “GFRalpha1 AS A BIOMARKER FOR CISPLATIN-INDUCED CHEMORESISTANCE AND METASTASIS” (THE BOARD OF REGENTS OF THE UNIVERSITY OF TEXAS SYSTEM, priority 2015, published 2018).

Key:
MG-63/GFRα1 tumors = experiment: MG-63/GFRα1 xenograft in BALB/c nude mice; type: in vivo; settings: CQ 60 mg/kg, cisplatin 3 mg/kg, once a week
Description: FIG. 5. GFRα1-mediated autophagy promotes chemoresistance and tumor growth in vivo. (a) BALB/c nude mice (n =40) were injected with MG-63 cells that were transfected with either control or GFRα1 expressing vector. Tumor volume was measured every 3 or 4 days. Data are shown as mean±SEM. ** p<0.05. (b) BALB/c nude mice (n=20) were injected with MG-63 cells that were transfected with either control or GFRα1 shRNA. Tumor volume was measured every 3 or 4 days. Data are shown as mean±SEM. ** p<0.05. (c) Tumors that were generated from mice injected with MG-63 cells containing GFRα1 expressing vector were directly injected with PBS, CQ, cisplatin, or cisplatin+CQ. Tumor volume was measured every 4 days. Data are shown as mean±SEM. ** p<0.05 vs PBS, CQ, or cisplatin-treated tumors. (d) Left, representative images of immunofluorescence staining of HMGB1 in a section from tumors generated from mice injected with MG-63 cells containing GFRα1 expressing vector and then treated with PBS, CQ, cisplatin, or cisplatin+CQ. Right, quantitative analysis of percentage of cytoplasmic HMGB1-positive cells in HMGB1-positive tumors. The values are represented as a mean±s.d.m. (n=3). ** denotes p<0.05 by t-test. (e) Left, representative images of TUNEL-positive cells in a section from tumors generated from mice injected with MG-63 cells containing GFRα1 expressing vector and then treated with PBS, CQ, cisplatin, or cisplatin+CQ. Right, quantitative analysis of percentage of TUNEL-positive cells in HMGB1-positive tumors. The values are represented as a mean±s.d.m. (n=3). ** denotes p<0.05 by t-test. (0 Survival rate of mice injected with MG-63 cells containing GFRα1 expressing vector and then treated with either cisplatin or cisplatin+CQ. (g) Representative images of immunohistochemical staining of GFRα1 in a section from human osteosarcoma patient before and after cisplatin treatment. (h) Representative images of immunofluorescence staining of GFRα1 and HMGB1 in a section from human osteosarcoma patient before and after cisplatin treatment.
Tumor formation in nude mice. The mice used in this study were 6-week-old female BALB/c nude mice purchased from Orient Bio Inc. (Seongnam, Korea). […] The tumor size was measured with a caliper every 3 or 4 days. […] The tumor size was measured with a caliper every 4 days. […] were calculated from caliper measurements of tumor dimensions in mm using the formula for a prolate ellipsoid: (L×W^2)/2 where L is the longer of the two-measurements.
Statistical analysis. Survival data was analyzed by the Kaplan-Meier and log-rank test with GraphPad Prism v5.04 (GraphPad Software, La Jolla Calif.). Plating efficiency (PE, %)=(Number of colonies counted/Number of cells plated)×100. […] All values are expressed as the mean±standard deviation (SD). […]

[1] = system: Src/AMPK signaling in MG-63 cells; experiment: Immunoblot of Src/AMPK/mTOR signaling; type: cell-based, human; settings: cisplatin 20 μM, 24 hr
Description: FIG. 4. GFRα1 regulates autophagy by Src/AMPK signaling in osteosarcoma cells. (a-b) Immunoblot analysis of osteosarcoma cell lysates with antibodies specific for GFRα1, p-Src, Src, p-AMPK, AMPK, p-mTOR, mTOR, p-p70 S6Kinase, Beclin 1, HMGB1, LC3, and β-actin. (a) MG-63 and cells were treated with cisplatin (20 μM) for 24 hr. (b) Control and GFRα1-deficient MG-63 cells were treated with cisplatin (20 μM) for 24 hr. (c-e) Immunoblot analysis of osteosarcoma cell lysates with antibodies specific for GFRα1, p-Src, Src, p-AMPK, AMPK, LC3, and β-actin. (c) Control and Src-deficient MG-63 cells were treated with cisplatin (20 μM) for 24 hr. (d) MG-63 cells were cultured in the presence or absence of PP1 (5 μM) and then treated with cisplatin (20 μM) for 24 hr. (e) MG-63 cells were cultured in the presence or absence of Compound C and then treated with cisplatin (20 μM) for 24 hr. (f) Cell viability of MG-63 cells after cisplatin treatment in the presence of PP1. MG-63 cells were cultured with DMSO or PP1 (2, 5 μM) and then treated with cisplatin (20 μM) for 24 hr. Cell viability was measured using the WST-1 assay. The values are represented as a mean±s.d.m. (n=3). ** denotes p<0.05 by t-test. (g) Cell viability of MG-63 cells after cisplatin treatment in the presence of Compound C. MG-63 cells were cultured with DMSO or Compound C (5, 10 μM) and then treated with cisplatin (20 μM) for 24 hr. Cell viability was measured using the WST-1 assay. The values are represented as a mean±s.d.m. (n=3). ** denotes p<0.05 by t-test.
Immunoblotting. Cells were washed with PBS and lysed in RIPA Buffer (Pierce, Rockford, Ill.). The protein content was determined using a dye-binding microassay (Bio-Rad, Hercules, Calif.), and 10-50 μg protein per lane was electrophoresed on 4-12% SDS polyacrylamide gels. Proteins were blotted onto Hybond ECL membranes (Amersham Pharmacia Biotech, Piscataway, N.J.). Two protein ladders were used for molecular weight determination (GenDEPOT, Barker, Tex.). The blotted proteins were detected using an enhanced chemiluminescence detection system (iNtRON, Seoul, Korea). Data were quantified and analyzed with Image-J software.

In the case of `N.N.[Cl][Pt][Cl]` [cisplatin, Cis-Diamineplatinum(II) dichloride], the tumor progression (MG-63/GFRα1 tumors) is reported as “allowed the tumors to survive”, the “tumor volume compared to PBS-treated mice” value (MG-63/GFRα1 tumors) is reported as “decreased” and the “level of phosphorylated AMPK” value [1] is reported as “increased”. The “level of phosphorylated S6K (P70-S6Kinase)” value [1] was “decreased”, the “level of phosphorylated Src” value [1] was “increased” and the “level of phosphorylated mTOR” value [1] was “decreased”.
